Experimental data from patent US20230012368A1 (Hoffmann-La Roche Inc., priority 2018, published 2023).
Where a name gives a salt, the structure may show the parent alone. Read-outs that look alike come from different tables or passages of the source.

Test system: Acinetobacter baumannii ATCC 17978
Assay: Antimicrobial susceptibility testing: 90% growth inhibitory concentration (IC90) determination
Format: cell-based
Details: 90% growth inhibitory concentration, Acinetobacter baumannii ATCC17978, Iso-Sensitest broth, OD 600 nm over 16h, read-out: ATCC17978 IC90
In short: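 Compounds serially twofold diluted (e.g. 50 to 0.097 μM final) in Iso-Sensitest broth, inoculated at ~5×10^(5) CFU/ml, incubated at 35±2° C. OD600 read every 20 minutes over 16h. IC90 taken as concentration inhibiting 90% of growth during logarithmic phase.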

[1] = Acinetobacter baumannii, ATCC17978, 16 h

Structure (SMILES) | IC90 [1] [nM] | further results
CCc1cc(Nc2nccn3c(-c4ccc(OCC#N)c(F)c4F)cnc23)ccc1C(=O)NCCNC(=O)[C@@H](N)CO [Example 135, N-[2-[[(2S)-2-amino-3-hydroxy-propanoyl]amino]ethyl]-4-[[3-[4-(cyanomethoxy)-2,3-difluoro-phenyl]imidazo[1,2-a]pyrazin-8-yl]amino]-2-ethyl-benzamide formate] | 90 | –
CCc1cc(Nc2nccn3c(-c4ccc(OCC#N)c(F)c4F)cnc23)ccc1C(=O)NCCNC(=O)CN [Example 136, N-[2-[(2-aminoacetyl)amino]ethyl]-4-[[3-[4-(cyanomethoxy)-2,3-difluoro-phenyl]imidazo[1,2-a]pyrazin-8-yl]amino]-2-ethyl-benzamide formate] | 60 | –
CCc1cc(Nc2nccn3c(-c4ccc(OCC#N)c(F)c4F)cnc23)ccc1C(=O)NCCNC(=O)CCN [Example 137, N-[2-(3-aminopropanoyl-amino)ethyl]-4-[[3-[4-(cyanomethoxy)-2,3-difluoro-phenyl]imidazo[1,2-a]pyrazin-8-yl]amino]-2-ethyl-benzamide formate] | 70 | –
CCc1cc(Nc2nccn3c(-c4ccc(OCC#N)c(F)c4F)cnc23)ccc1C(=O)NCCNC(=O)[C@@H](N)[C@@H](C)O [Example 138, N-[2-[[(2S,3R)-2-amino-3-hydroxy-butanoyl]amino]ethyl]-4-[[3-[4-(cyanomethoxy)-2,3-difluoro-phenyl]imidazo[1,2-a]pyrazin-8-yl]amino]-2-ethyl-benzamide formate] | 100 | –
CCc1cc(Nc2nccn3c(-c4ccc(OC)c(F)c4F)cnc23)ccc1C(=O)NCCNC(=O)CCCCNC(=N)N [Example 139, 4-[[3-(2,3-difluoro-4-methoxy-phenyl)imidazo[1,2-a]pyrazin-8-yl]amino]-2-ethyl-N-[2-(5-guanidino-pentanoylamino)ethyl]benzamide formate] | 60 | –
CCc1cc(Nc2nccn3c(-c4ccc(OCC#N)c(F)c4F)cnc23)ccc1C(=O)NCCNC(=O)[C@@H](N)CCCN [Example 140, 4-[[3-[4-(cyanomethoxy)-2,3-difluoro-phenyl]imidazo[1,2-a]pyrazin-8-yl]amino]-N-[2-[[(2S)-2,5-diaminopentanoyl]amino]ethyl]-2-ethyl-benzamide formate] | 170 | –
CCc1cc(Nc2nccn3c(-c4ccc(OCC#N)c(F)c4F)cnc23)ccc1C(=O)NCCNC(=O)CCCN [Example 141, N-[2-(4-aminobutanoylamino)ethyl]-4-[[3-[4-(cyanomethoxy)-2,3-difluoro-phenyl]imidazo[1,2-a]pyrazin-8-yl]amino]-2-ethyl-benzamide formate] | 70 | –
CCc1cc(Nc2nccn3c(-c4ccc(OCC#N)c(F)c4F)cnc23)ccc1C(=O)NCCNC(=O)CC(O)CN (centres unmarked) [Example 142, N-[2-[(4-amino-3-hydroxy-butanoyl)amino]ethyl]-4-[[3-[4-(cyanomethoxy)-2,3-difluoro-phenyl]imidazo[1,2-a]pyrazin-8-yl]amino]-2-ethyl-benzamide formate] | 130 | –
CCc1cc(Nc2nccn3c(-c4ccc(OCC#N)c(F)c4F)cnc23)ccc1C(=O)NCCNC(=O)[C@@H](N)CCCCN [Example 143, 4-[[3-[4-(cyanomethoxy)-2,3-difluoro-phenyl]imidazo[1,2-a]pyrazin-8-yl]amino]-N-[2-[[(2S)-2,6-diaminohexanoyl]amino]ethyl]-2-ethyl-benzamide formate] | 160 | –
CCc1cc(Nc2nccn3c(-c4ccc(OCC#N)c(F)c4F)cnc23)ccc1C(=O)NCCNC(=O)[C@@H](N)CCN [Example 144, 4-[[3-[4-(cyanomethoxy)-2,3-difluoro-phenyl]imidazo[1,2-a]pyrazin-8-yl]amino]-N-[2-[[(2S)-2,4-diaminobutanoyl]amino]ethyl]-2-ethyl-benzamide formate] | 90 | –
CCc1cc(Nc2nccn3c(-c4ccc(OCC#N)c(F)c4F)cnc23)ccc1C(=O)NCCNC(=O)[C@@H](N)CN [Example 145, 4-[[3-[4-(cyanomethoxy)-2,3-difluoro-phenyl]imidazo[1,2-a]pyrazin-8-yl]amino]-N-[2-[[(2S)-2,3-diaminopropanoyl]amino]ethyl]-2-ethyl-benzamide formate] | 150 | –
CCc1cc(Nc2nccn3c(-c4ccc(OC)c(F)c4F)cnc23)ccc1C(=O)NCC(O)CNC(=O)CCN (centres unmarked) [Example 146, N-[3-(3-aminopropanoyl-amino)-2-hydroxy-propyl]-4-[[3-(2,3-difluoro-4-methoxy-phenyl)imidazo[1,2-a]pyrazin-8-yl]amino]-2-ethyl-benzamide hydrochloride] | 190 | –
CCc1cc(Nc2nccn3c(-c4ccc(OC)c(F)c4F)cnc23)ccc1C(=O)NCC(O)CN (centres unmarked) [Example 147, N-(3-amino-2-hydroxy-propyl)-4-[[3-(2,3-difluoro-4-methoxy-phenyl)imidazo[1,2-a]pyrazin-8-yl]amino]-2-ethyl-benzamide;hydrochloride] | – | IC90 (hydrochloride): 450 nM
CCc1cc(Nc2nccn3c(-c4ccc(OCC#N)c(F)c4F)cnc23)ccc1C(=O)NCCNC(=O)[C@H](N)CCCNC(=N)N [Example 148, N-[2-[[(2R)-2-amino-5-guanidino-pentanoyl]amino]ethyl]-4-[[3-[4-(cyanomethoxy)-2,3-difluoro-phenyl]imidazo[1,2-a]pyrazin-8-yl]amino]-2-ethyl-benzamide formate] | 100 | –
Cc1cc(Nc2nccn3c(-c4ccc(OC(F)F)cc4)cnc23)ccc1C(=O)N(C)CCC1CCN(CCC(=O)O)CC1 [Example 150, 3-(4-(2-(4-((3-(4-(difluoromethoxy)phenyl)imidazo[1,2-a]pyrazin-8-yl)amino)-N,2-dimethylbenzamido)ethyl)piperidin-1-yl)propanoic acid] | 650 | –
C/C=C/c1cc(Nc2nccn3c(-c4ccc(OC(F)F)cc4)cnc23)ccc1C(=O)NC [Example 151, (E)-4-((3-(4-(Difluoromethoxy)phenyl)imidazo[1,2-a]pyrazin-8-yl)amino)-N-methyl-2-(prop-1-en-1-yl)benzamide] | 2000 | –
CCCc1cc(Nc2nccn3c(-c4ccc(OC(F)F)cc4)cnc23)ccc1C(=O)NC [Example 152, 4-((3-(4-(Difluoromethoxy)phenyl)imidazo[1,2-a]pyrazin-8-yl)amino)-N-methyl-2-propylbenzamide] | 1100 | –
COc1ccc(-c2cnc3c(Nc4ccc(C(=O)N(C)CC5OCC(N)CO5)c(C)c4)nccn23)cc1 (centres unmarked) [Example 153, N-((5-Amino-1,3-dioxan-2-yl)methyl)-4-((3-(4-methoxyphenyl)imidazo[1,2-a]pyrazin-8-yl)amino)-N,2-dimethylbenzamide] | 530 | –
COc1ccc(-c2cnc3c(Nc4ccc(C(=O)NC(CO)CO)c(C)c4)nccn23)cc1 [Example 154] | 820 | –
CCc1cc(Nc2nccn3c(-c4ccc(OC)c(F)c4F)cnc23)ccc1C(=O)NCCCNC(=O)[C@H](CCCNC(=N)N)NC(=O)[C@@H](N)CCC(=O)O [Example 156, (S)-4-amino-5-(((S)-1-((3-(4-((3-(2,3-difluoro-4-methoxyphenyl)imidazo[1,2-a]pyrazin-8-yl)amino)-2-ethylbenzamido)propyl)amino)-5-guanidino-1-oxopentan-2-yl)amino)-5-oxopentanoic acid trihydrochloride] | 340 | –
CCc1cc(Nc2nccn3c(-c4ccc(OC)c(F)c4F)cnc23)ccc1C(=O)NCCNC(=O)[C@@H](N)CCCNC(=N)NCCCC(=O)O [Example 157, (S)-7-amino-1-(4-((3-(2,3-difluoro-4-methoxyphenyl)imidazo[1,2-a]pyrazin-8-yl)amino)-2-ethylphenyl)-12-imino-1,6-dioxo-2,5,11,13-tetraazaheptadecan-17-oic acid trihydrochloride] | – | IC90: 320 nM
CCc1cc(Nc2nccn3c(-c4ccc(OC)c(F)c4F)cnc23)ccc1C(=O)NCC(=O)N(C)CCNC [Example 158, 4-((3-(2,3-difluoro-4-methoxyphenyl)imidazo[1,2-a]pyrazin-8-yl)amino)-2-ethyl-N-(2-(methyl(2-(methylamino)ethyl)amino)-2-oxoethyl)benzamide; formic acid] | – | IC90: 160 nM
CCc1cc(Nc2nccn3c(-c4ccc(OCC#CCOCCN)c(F)c4F)cnc23)ccc1C(=O)NCCCN [Example 159, 4-[[3-[4-[4-(2-aminoethoxy)but-2-ynoxy]-2,3-difluoro-phenyl]imidazo[1,2-a]pyrazin-8-yl]amino]-N-(3-aminopropyl)-2-ethyl-benzamide] | 230 | –
CCc1cc(Nc2nccn3c(-c4ccc(OC)c(F)c4F)cnc23)ccc1C(=O)NCCC(=O)N1CCN[C@H](CO)C1 [Example 160, 4-[[3-(2,3-difluoro-4-methoxy-phenyl)imidazo[1,2-a]pyrazin-8-yl]amino]-2-ethyl-N-[3-[(3S)-3-(hydroxymethyl)piperazin-1-yl]-3-oxo-propyl]benzamide] | 150 | –
CCc1cc(Nc2nccn3c(-c4ccc(OC)c(F)c4F)cnc23)ccc1C(=O)NCCCC(=O)N1CCN[C@H](CO)C1 [Example 161, 4-[[3-(2,3-difluoro-4-methoxy-phenyl)imidazo[1,2-a]pyrazin-8-yl]amino]-2-ethyl-N-[4-[(3S)-3-(hydroxymethyl)piperazin-1-yl]-4-oxo-butyl]benzamide] | 80 | –
CCc1cc(Nc2nccn3c(-c4ccc(OC)c(F)c4F)cnc23)ccc1C(=O)NCCCCCC(=O)N1CCN[C@H](CO)C1 [Example 162, 4-[[3-(2,3-difluoro-4-methoxy-phenyl)imidazo[1,2-a]pyrazin-8-yl]amino]-2-ethyl-N-[6-[(3S)-3-(hydroxymethyl)piperazin-1-yl]-6-oxo-hexyl]benzamide] | 80 | –
